From article PMC4784480 (FEBS letters, 2010)

Molecular target: T1, Type II NADH dehydrogenase (Plasmodium falciparum, UniProt Q8I302)
T1 sequence (Q8I302 24-533): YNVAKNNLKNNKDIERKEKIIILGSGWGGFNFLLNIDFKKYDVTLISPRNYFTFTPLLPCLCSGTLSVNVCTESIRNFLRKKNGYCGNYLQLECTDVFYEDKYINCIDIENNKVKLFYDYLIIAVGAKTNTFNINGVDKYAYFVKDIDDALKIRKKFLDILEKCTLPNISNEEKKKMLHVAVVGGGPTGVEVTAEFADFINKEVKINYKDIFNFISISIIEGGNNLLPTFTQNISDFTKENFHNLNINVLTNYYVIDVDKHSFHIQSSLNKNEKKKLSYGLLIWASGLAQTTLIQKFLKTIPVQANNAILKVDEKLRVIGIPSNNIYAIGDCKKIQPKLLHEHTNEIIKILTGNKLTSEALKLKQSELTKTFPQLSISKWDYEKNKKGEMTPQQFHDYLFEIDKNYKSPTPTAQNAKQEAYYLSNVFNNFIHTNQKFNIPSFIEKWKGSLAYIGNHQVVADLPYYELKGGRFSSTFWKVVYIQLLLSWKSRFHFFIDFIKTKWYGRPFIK
Assay: NADH oxidation at […] nm, parasite cell-free extract
Format: biochemical
Details: concentration not given

Structure (SMILES)	NADH oxidation at 340 nm, parasite cell-free extract (inhibitor of MQ-4-dependent NADH oxidation)	NADH oxidation at 340 nm, parasite cell-free extract (electron acceptor with NADH)
c1ccc2c(c1)[I+]c1ccccc1-2 [DPI, diphenylene iodonium chloride]	sensitive to diphenylene iodonium chloride (DPI), a classical Type II NADH:dehydrogenase inhibitor	–
CCCCCCCCCCC1=C(C)C(=O)C(OC)=C(OC)C1=O [decylubiquinone]	–	Without MQ-4 or decylubiquinone addition no NADH oxidation was observed
